Experimental data from publication PMC10689823, “Discovery of a Drug-like, Natural Product-Inspired DCAF11 Ligand Chemotype” (Nature Communications, 2023).
Values joined by “and” are separate entries in the source; they are usually repeats but may differ in a detail not shown here. Identical values can stand only once. One block for each compound: values may come before it.

Columns and labels:
DCAF11 = DCAF11 (Homo sapiens, UniProt Q8TEB1); assay: Affinity-based enrichment (biotin-streptavidin pulldown) in Hep G2 cells overexpressing HA-DCAF11; assay type: binding; parameters: host or cells: Hep G2; details: Hep G2 cells overexpressing HA-DCAF11; 10 μM probe, 2 h
Method: Hep G2 cells (1 × 10^6 cells/well) were seeded in 6-well plates and incubated for 24 h. On the next day, the cells were transfected with 1 µg pCMV3-N-HA-DCAF11 plasmid (Sino Biological, HG16257-NY) or 1 µg empty vector (pcDNA3.1(+), Thermo Fisher, V79020) and 2.5 µL FuGENE® HD transfection reagent (Promega, E2311) per well. The cells were incubated for 48 h prior to treatment with 100 μM compound 2 for 1 h. […] The cells were washed with ice-cold PBS, then lysed in lysis buffer (150 mM sodium chloride, 1% NP-40, 50 mM TRIS-HCl, pH 8.0 with complete protease inhibitor cocktail (Roche, 11836170001)) for 30 min on ice. After centrifugation at 16,000 x g, the supernatant was transferred into a new tube and the protein concentration was determined using the DC protein assay (BIO-RAD, 5000116).
The supernatant was discarded and 1 mg of lysate in 500 µL lysis buffer was added to the beads and incubated for 1 h at room temperature with overhead rotation. The beads were washed twice with 500 µL washing buffer (50 mM PIPES (pH 7.4), 50 mM NaCl, 75 mM MgCl2, 5 mM EGTA, 0.1% NP-40, 0.1% Triton X-100, 0.1% Tween20) and twice with PBS for 10 min each at room temperature with overhead rotation. Enriched proteins were eluted by boiling of the beads at 95 °C for 5 min in 20 µL of a supersaturated (25 mM) biotin solution and visualized by Western Blotting as described above.

caspase-3/7 activity = assay: Caspase-3/7 Activity Assay in Jurkat cells; assay type: cell-based; details: 18 h, Fig. 4l
Method: Jurkat cells (3 × 10^3) were seeded in 96-well plates in 25 μl culture medium. Cells were treated with compounds dissolved in 25 μl medium at the indicated concentration for 18 h. After adding 50 μl of Caspase-Glo® 3/7 Reagent (Promega, G8091) to each well for 30 min at room temperature, the luminescence was measured on a Spark® Multimode Microplate Reader (Tecan). The data was analyzed by the GraphPad Prism 9.0.

BRD2 [1] = assay: In-Cell Western for BRD2 levels in Hep G2 cells; assay type: cell-based; details: Hep G2 cells; 4 h
Method: Hep G2 cells were seeded in 96-well plates and incubated for 24 h. Compounds were added for the indicated time at the indicated concentration. Cells were then washed once with PBS and fixed with 4% paraformaldehyde for 30 min at room temperature. The fixed cells were permeabilized with 0.5 % Triton-X100 for 15 min followed by block with Intercept® Blocking Buffer (LI-COR Biosciences, 927-70001) for 1 h at room temperature. Primary antibodies for BRD2 (1:800) and Vinculin (1:2000) were diluted with LI-COR buffer and incubated with the cells at 4 °C overnight. Cells were washed with PBS-T, and the secondary antibodies conjugated to IRDye (1:1000, LI-COR Biosciences) were added to the cells for 1 h at room temperature. After washing the cells, the signal was recorded with the Odyssey® CLx Infrared Imaging System (LI-COR Biosciences) and the protein levels were analyzed by Image Studio (LI-COR Biosciences). BRD2 protein levels were normalized to the levels of reference protein vinculin.

BRD2 [2] = biological target: BRD2 (Homo sapiens, UniProt P25440); assay: BRD2 levels by Western blot in KBM7 cells (WT, DCAF11 knockout, DDB1 knockout); assay type: cell-based; parameters: endogenous in cells; host or cells: KBM7 (WT, DCAF11 KO, DDB1 KO); details: 4 h
Method: Cells were washed with PBS and lysed in lysis buffer (50 mM Tris-HCl, pH 7.4, 150 mM NaCl, 1% Triton X-100, 1% sodium deoxycholate, 0.1% SDS) with complete protease inhibitor cocktail (Roche, 11836170001) for 30 min on ice. For Ramos cells, cell pellets were lysed in lysis buffer (50 mM Tris-HCl, pH 8, 150 mM NaCl, 1% NP-40, 0.5% sodium deoxycholate) with complete protease inhibitor cocktail. After centrifugation at 16,000 x g, the supernatant was transferred into a new tube and the protein concentration was determined by DC protein assay (BIO-RAD, 5000116). Proteins were separated by SDS-PAGE and transferred to a PVDF membrane (Thermo scientific, 0.45 μm, 88518). For PDEδ, BRD2, GAPDH, BRD4, Vinculin and BTK, the membranes were blocked with Intercept® Blocking Buffer (LI-COR Biosciences, 927-70001) at room temperature for 1 h. The primary antibodies for these proteins were diluted with Intercept® Blocking Buffer (1:500 for PDEδ, 1:3000 for Vinculin, and 1:1000 for other proteins) and incubated with the membranes overnight at 4 °C. Membranes were washed with PBS + 0.1% Tween 20 (PBS-T) five times and incubated with secondary antibodies conjugated to IRDye® Infrared Fluorescent Dyes (1:5000, LI-COR Biosciences) at room temperature for 1 h with protection from light. After washing the membrane, signals were visualized using the ChemiDoc MP Imaging System (BIO-RAD Laboratories). For detection of LC3B, BRD3, BLK, DCAF11, DDB1 RBX1, FIP200, V5- and FLAG-Tag the membranes were blocked with 5% milk in PBS-T at room temperature for 1 h. The primary antibodies for these proteins were diluted in 5% milk in PBS-T buffer (1:200 for BRD3, 1:1000 for other proteins) and incubated with the membranes overnight at 4 °C. Membranes were washed with PBS-T five times and incubated with HRP secondary antibodies (1:1500) at room temperature for 1 h. After washing the membrane, protein detection was performed using Western blotting detection reagent (Thermo Scientific, 34095) and the ChemiDoc MP Imaging System (BIO-RAD). Relative band intensities were quantified using Image Lab (BIO-RAD).
DCAF11- or FIP200 (RB1CC1)-targeting sgRNAs were lentivirally packaged using PEI transfection of Lenti-X cells. The viral supernatant was harvested after 72 h, cleared of cellular debris by filtration through a 0.45-µm PES filter and stored in aliquots at −80 °C. The appropriate amount of viral supernatant was transduced into KBM7 cells (1 × 10^6 cells/mL) via spinfection (2000 rpm, 1 h, 37 °C) with polybrene (8 µg/mL). Two days post transduction, the cells were selected with puromycin (1 µg/mL) for a total of 5 days, after which the knockout pools were validated via western blotting.

[3] = Cell viability assay (CellTiter-Glo) in Jurkat cells; assay type: cell-based; details: human, Jurkat cells
Method: (§1) Jurkat cells (3 × 10^3) and Hep G2 cells (3.5 × 10^3) were seeded in 96-well plates in 100 μL culture medium. Cells were treated with compounds dissolved in 50 μl medium at the indicated concentration for 72 h, at the same time, one plate of cells without compounds treatment was used for the cell count at time zero. After adding 40 μl of CellTiter-Glo® reagent (Promega, G7571) to each well for 10 min at room temperature, the luminescence was measured on a Spark® Multimode Microplate Reader (Tecan). The data was analyzed by the GraphPad Prism 9.0.

Jurkat cells = assay: as above; assay type: cell-based; details: for Relative cell viability (%): Fig. 4k; for Cell viability (%) relative to DMSO: individual replicates, Supplementary Fig. 7g
Method: as §1

Sequence of DCAF11 (Q8TEB1 whole entry): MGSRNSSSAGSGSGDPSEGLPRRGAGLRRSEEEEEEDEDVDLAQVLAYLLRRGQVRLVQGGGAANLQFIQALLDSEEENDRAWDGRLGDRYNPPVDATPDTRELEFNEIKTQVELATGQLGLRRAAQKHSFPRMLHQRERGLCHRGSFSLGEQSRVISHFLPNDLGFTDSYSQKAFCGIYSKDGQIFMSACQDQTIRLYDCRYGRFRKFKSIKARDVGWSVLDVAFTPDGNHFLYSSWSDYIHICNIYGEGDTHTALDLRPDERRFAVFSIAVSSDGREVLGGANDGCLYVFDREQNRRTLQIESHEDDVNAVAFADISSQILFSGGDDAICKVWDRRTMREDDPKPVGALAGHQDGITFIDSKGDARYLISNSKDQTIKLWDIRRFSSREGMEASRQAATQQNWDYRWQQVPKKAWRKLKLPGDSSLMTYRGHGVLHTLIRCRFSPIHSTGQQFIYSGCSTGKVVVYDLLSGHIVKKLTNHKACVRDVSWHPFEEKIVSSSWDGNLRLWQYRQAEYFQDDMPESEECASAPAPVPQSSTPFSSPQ
Sequence of BRD2 (Homo sapiens, UniProt P25440) (P25440 whole entry): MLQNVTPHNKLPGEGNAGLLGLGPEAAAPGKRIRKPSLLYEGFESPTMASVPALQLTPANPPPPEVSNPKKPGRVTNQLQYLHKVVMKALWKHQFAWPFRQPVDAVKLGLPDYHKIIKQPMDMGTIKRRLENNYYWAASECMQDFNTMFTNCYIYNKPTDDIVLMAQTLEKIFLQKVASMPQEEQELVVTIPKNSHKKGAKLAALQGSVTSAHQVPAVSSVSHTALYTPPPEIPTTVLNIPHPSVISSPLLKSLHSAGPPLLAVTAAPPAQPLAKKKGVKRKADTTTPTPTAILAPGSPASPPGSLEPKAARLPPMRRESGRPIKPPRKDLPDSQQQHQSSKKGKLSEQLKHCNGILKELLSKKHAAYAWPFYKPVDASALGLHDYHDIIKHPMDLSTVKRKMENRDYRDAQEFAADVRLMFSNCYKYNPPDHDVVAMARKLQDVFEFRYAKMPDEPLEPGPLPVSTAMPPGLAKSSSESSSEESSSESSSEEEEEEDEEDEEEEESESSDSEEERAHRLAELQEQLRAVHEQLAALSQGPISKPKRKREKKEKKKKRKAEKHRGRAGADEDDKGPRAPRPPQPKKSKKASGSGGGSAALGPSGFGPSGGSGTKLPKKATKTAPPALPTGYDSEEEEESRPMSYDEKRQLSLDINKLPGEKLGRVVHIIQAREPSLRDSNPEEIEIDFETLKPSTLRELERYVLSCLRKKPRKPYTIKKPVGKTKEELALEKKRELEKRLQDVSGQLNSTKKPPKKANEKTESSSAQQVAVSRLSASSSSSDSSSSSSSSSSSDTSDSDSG

- enrichment of DCAF11 by pulldown (DCAF11): enriched DCAF11 protein
SMILES: O=C(CCCCC1SC[C@@H]2NC(=O)N[C@H]12)NCCOc1c(Br)cc(/C=C2\C(=O)Nc3ccc(Br)cc32)cc1Br (stereo partly drawn) [Compound 14]

- BRD2 degradation in KBM7 cells (BRD2 [2]): did not induce degradation of BRD2
- GI50 (Jurkat cells; Homo sapiens, Jurkat cells, 72 h): 1000 to 1200 nM
SMILES: Cc1sc2c(c1C)C(c1ccc(Cl)cc1)=NC(CC(=O)NCCOCCOCCOCCOCCNC(=O)COc1c(Br)cc(CC3C(=O)Nc4ccc(Br)cc43)cc1Br)c1nnc(C)n1-2 (stereo not drawn) [Compound 16]
- Caspase 3/7 activity (fold change) (caspase-3/7 activity; 0.3 μM): 1.231 fold change and 1.654 fold change and 1.232 fold change
- Caspase 3/7 activity (fold change) (caspase-3/7 activity; 1 μM): 1.2 fold change and 1.194 fold change and 1.182 fold change
- BRD2 depletion by In-Cell Western (BRD2 [1]): did not induce in cellulo degradation
- viability at 72 h, 10 nmol/L ([3]; concentration 10 nmol/L, individual replicates, Supplementary Fig. 7g, read-out: Cell viability (%) relative to DMSO): 95.2%
- viability at 72 h, 100 nmol/L ([3]; concentration 100 nmol/L, individual replicates, Supplementary Fig. 7g, read-out: Cell viability (%) relative to DMSO): 99.6%
- viability at 72 h, 300 nmol/L ([3]; concentration 300 nmol/L, individual replicates, Supplementary Fig. 7g, read-out: Cell viability (%) relative to DMSO): 96.7%
- viability at 72 h, 1000 nmol/L ([3]; concentration 1000 nmol/L, individual replicates, Supplementary Fig. 7g, read-out: Cell viability (%) relative to DMSO): 82.7%
- viability at 72 h, 3000 nmol/L ([3]; concentration 3000 nmol/L, individual replicates, Supplementary Fig. 7g, read-out: Cell viability (%) relative to DMSO): 60%
- viability at 72 h, 10000 nmol/L ([3]; concentration 10000 nmol/L, individual replicates, Supplementary Fig. 7g, read-out: Cell viability (%) relative to DMSO): 8.63%
- viability at 72 h, 0.01 µM ([3]; 72 h, 10 nM, Fig. 4k, read-out: Relative cell viability (%)): 97.2%
- viability at 72 h, 0.03 µM ([3]; 72 h, 30 nM, Fig. 4k, read-out: Relative cell viability (%)): 102%
- viability at 72 h, 0.1 µM ([3]; 72 h, 100 nM, Fig. 4k, read-out: Relative cell viability (%)): 92.6%
- viability at 72 h, 1 µM ([3]; 72 h, 1000 nM, Fig. 4k, read-out: Relative cell viability (%)): 49.7%
- viability at 72 h, 3 µM ([3]; 72 h, 3000 nM, Fig. 4k, read-out: Relative cell viability (%)): 16.6%
- Relative cell viability (%) (Jurkat cells; Jurkat cells, 72 h, 10 nM, 0.01 µM): 112.636% and 96.9495%
- Relative cell viability (%) (Jurkat cells; Jurkat cells, 72 h, 30 nM, 0.03 µM): 115.001% and 96.0444%
- Relative cell viability (%) (Jurkat cells; Jurkat cells, 72 h, 100 nM, 0.1 µM): 99.9011% and 81.8303%
- Relative cell viability (%) (Jurkat cells; Jurkat cells, 72 h, 300 nM, 0.3 µM): 80.1727% and 96.1576% and 71.4791%
- Relative cell viability (%) (Jurkat cells; Jurkat cells, 72 h, 1000 nM, 1 µM): 60.9647% and 43.3109%
- Relative cell viability (%) (Jurkat cells; Jurkat cells, 72 h, 3000 nM, 3 µM): 18.6473% and 16.4385%
- Relative cell viability (%) (Jurkat cells; Jurkat cells, 72 h, 10000 nM, 10 µM): -0.2254% and 0.02364% and 0.3624%
- Relative cell viability (%) (Jurkat cells; Jurkat cells, 72 h, 30000 nM, 30 µM): -0.3131% and -0.2888% and -0.253%
- Cell viability (%) relative to DMSO (Jurkat cells; concentration 10 nmol/L): 99.6715% and 109.515%
- Cell viability (%) relative to DMSO (Jurkat cells; concentration 30 nmol/L): 97.9616% and 103.22% and 119.751%
- Cell viability (%) relative to DMSO (Jurkat cells; concentration 100 nmol/L): 100.592% and 111.273%
- Cell viability (%) relative to DMSO (Jurkat cells; concentration 300 nmol/L): 96.8221% and 108.638%
- Cell viability (%) relative to DMSO (Jurkat cells; concentration 1000 nmol/L): 85.5266% and 95.8957%
- Cell viability (%) relative to DMSO (Jurkat cells; concentration 3000 nmol/L): 59.9059% and 72.5452%
- Cell viability (%) relative to DMSO (Jurkat cells; concentration 10000 nmol/L): 8.512% and 16.0463%
- Cell viability (%) relative to DMSO (Jurkat cells; concentration 30000 nmol/L): -0.0717% and -0.2673% and -0.08298%
